The target of assay [1] is T1, 5-hydroxytryptamine receptor 1A (Homo sapiens, UniProt P08908).
T1 sequence (P08908 whole entry): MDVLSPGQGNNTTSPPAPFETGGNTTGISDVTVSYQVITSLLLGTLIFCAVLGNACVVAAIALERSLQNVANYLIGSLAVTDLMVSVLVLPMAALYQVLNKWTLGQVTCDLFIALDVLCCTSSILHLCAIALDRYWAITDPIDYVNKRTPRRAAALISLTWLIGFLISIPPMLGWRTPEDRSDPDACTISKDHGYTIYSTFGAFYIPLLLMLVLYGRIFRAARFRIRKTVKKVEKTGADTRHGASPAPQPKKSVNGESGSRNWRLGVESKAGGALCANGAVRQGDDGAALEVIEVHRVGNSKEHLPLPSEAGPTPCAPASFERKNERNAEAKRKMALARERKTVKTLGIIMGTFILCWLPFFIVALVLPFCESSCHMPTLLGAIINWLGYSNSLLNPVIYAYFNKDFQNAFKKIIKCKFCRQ

Another assay deals with T2, Androgen receptor (Homo sapiens, UniProt P10275).
T2 sequence (P10275 whole entry): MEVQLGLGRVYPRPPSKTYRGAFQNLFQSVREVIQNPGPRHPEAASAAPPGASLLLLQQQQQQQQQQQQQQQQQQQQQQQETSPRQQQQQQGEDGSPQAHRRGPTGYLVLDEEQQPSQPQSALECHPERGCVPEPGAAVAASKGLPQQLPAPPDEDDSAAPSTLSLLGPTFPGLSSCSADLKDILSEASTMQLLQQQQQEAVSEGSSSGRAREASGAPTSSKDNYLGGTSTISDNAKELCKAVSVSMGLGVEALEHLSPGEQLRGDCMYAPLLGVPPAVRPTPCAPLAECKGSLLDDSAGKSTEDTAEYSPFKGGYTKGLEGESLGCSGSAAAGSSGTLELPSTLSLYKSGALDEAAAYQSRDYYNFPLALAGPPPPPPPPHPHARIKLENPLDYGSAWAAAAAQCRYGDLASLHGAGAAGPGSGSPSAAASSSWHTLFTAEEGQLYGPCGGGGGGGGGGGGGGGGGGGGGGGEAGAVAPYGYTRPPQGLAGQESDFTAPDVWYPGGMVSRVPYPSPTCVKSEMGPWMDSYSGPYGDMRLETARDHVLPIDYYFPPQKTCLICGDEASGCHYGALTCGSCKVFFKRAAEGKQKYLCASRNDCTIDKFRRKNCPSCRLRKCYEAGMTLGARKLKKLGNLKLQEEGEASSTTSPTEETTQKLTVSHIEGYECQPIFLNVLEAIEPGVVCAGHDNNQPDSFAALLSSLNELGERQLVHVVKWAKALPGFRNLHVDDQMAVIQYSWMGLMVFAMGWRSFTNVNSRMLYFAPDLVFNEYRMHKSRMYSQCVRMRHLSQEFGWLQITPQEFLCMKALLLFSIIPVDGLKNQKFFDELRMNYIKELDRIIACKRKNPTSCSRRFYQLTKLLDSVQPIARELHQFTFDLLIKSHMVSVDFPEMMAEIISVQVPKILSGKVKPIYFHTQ

Assay [2] has as its target T3, Muscarinic acetylcholine receptor M1 (Homo sapiens, UniProt P11229).
T3 sequence (P11229 whole entry): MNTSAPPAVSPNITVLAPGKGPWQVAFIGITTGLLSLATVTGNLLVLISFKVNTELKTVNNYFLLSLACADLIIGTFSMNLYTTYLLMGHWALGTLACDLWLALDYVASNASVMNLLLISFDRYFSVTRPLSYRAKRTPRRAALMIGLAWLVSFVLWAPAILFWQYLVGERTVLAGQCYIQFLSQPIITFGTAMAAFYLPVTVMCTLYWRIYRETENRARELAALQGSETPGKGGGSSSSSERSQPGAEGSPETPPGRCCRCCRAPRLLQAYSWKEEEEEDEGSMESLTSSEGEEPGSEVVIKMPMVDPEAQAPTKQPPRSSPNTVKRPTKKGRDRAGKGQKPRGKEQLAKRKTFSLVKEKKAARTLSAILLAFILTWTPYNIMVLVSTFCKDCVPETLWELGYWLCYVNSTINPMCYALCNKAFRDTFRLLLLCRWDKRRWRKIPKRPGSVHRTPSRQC
In kind it is functional, cell-based.

The target in assay [3] is Gamma-aminobutyric acid receptor subunit alpha-1 (Rattus norvegicus, UniProt P62813).
The target of a further assay is T4, Thromboxane A2 receptor (Homo sapiens, UniProt P21731).
T4 sequence (P21731 whole entry): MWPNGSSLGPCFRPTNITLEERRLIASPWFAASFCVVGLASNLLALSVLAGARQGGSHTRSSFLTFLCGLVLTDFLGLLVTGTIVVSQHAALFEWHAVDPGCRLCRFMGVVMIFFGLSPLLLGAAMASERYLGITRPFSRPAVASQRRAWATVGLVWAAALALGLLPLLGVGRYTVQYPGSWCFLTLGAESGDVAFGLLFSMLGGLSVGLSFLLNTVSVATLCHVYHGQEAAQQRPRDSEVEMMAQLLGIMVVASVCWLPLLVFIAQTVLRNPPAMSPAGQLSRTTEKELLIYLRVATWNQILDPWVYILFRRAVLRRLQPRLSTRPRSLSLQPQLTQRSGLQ
In kind it is functional, cell-based.

The target in a further assay is T5, Estrogen receptor (Homo sapiens, UniProt P03372).
T5 sequence (P03372 whole entry): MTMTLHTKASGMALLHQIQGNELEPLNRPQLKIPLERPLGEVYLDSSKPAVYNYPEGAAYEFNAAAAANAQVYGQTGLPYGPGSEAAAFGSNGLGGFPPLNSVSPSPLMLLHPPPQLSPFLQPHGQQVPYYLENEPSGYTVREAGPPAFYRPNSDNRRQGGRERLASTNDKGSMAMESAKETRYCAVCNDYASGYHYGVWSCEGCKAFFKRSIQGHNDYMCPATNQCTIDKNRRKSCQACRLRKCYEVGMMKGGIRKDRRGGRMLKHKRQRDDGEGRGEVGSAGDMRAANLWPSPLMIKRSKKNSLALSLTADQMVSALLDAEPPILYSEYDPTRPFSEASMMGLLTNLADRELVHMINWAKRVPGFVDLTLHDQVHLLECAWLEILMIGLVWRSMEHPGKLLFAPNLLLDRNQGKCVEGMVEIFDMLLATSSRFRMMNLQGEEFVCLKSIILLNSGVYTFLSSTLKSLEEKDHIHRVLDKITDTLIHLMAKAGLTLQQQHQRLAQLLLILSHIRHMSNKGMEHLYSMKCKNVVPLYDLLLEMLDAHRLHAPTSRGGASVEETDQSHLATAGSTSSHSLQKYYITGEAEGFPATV

Assay [4] deals with Gamma-aminobutyric acid receptor subunit alpha-1/alpha-2/beta-2/gamma-2 (Homo sapiens, UniProt P14867+P18507+P47869+P47870). In kind it is protein-complex assay.
Assay [5] has as its target Neuronal acetylcholine receptor subunit alpha-4 (Homo sapiens, UniProt P43681).
Further: assay procedure not described here.

Chain of Gamma-aminobutyric acid receptor subunit alpha-1 (P62813 whole entry): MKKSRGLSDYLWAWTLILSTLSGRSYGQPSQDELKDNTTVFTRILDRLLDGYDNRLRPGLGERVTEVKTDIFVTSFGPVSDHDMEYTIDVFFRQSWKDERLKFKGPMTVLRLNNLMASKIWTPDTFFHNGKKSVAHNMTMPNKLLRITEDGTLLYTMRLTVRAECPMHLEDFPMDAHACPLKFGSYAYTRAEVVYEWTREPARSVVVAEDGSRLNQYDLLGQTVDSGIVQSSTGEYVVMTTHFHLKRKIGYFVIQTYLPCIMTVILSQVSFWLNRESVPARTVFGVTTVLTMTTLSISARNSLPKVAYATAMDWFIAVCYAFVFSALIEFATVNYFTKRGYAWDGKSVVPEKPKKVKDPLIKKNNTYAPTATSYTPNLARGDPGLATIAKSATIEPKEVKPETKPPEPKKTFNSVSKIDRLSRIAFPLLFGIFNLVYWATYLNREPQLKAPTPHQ
Chain of Gamma-aminobutyric acid receptor subunit alpha-1/alpha-2/beta-2/gamma-2 (P14867 whole entry): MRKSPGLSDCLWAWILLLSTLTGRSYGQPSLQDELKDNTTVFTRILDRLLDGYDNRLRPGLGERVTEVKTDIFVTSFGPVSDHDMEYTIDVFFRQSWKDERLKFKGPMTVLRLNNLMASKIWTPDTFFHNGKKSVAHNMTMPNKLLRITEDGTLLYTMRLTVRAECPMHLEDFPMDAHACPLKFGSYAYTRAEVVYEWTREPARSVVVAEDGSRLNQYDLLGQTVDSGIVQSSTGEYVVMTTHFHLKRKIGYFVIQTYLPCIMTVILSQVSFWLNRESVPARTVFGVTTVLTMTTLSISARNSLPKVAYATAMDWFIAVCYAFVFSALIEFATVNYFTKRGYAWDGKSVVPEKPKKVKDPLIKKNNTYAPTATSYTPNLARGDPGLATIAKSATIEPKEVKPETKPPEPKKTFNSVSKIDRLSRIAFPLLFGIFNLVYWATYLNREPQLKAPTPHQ
Chain of Gamma-aminobutyric acid receptor subunit alpha-1/alpha-2/beta-2/gamma-2 (P47870 whole entry): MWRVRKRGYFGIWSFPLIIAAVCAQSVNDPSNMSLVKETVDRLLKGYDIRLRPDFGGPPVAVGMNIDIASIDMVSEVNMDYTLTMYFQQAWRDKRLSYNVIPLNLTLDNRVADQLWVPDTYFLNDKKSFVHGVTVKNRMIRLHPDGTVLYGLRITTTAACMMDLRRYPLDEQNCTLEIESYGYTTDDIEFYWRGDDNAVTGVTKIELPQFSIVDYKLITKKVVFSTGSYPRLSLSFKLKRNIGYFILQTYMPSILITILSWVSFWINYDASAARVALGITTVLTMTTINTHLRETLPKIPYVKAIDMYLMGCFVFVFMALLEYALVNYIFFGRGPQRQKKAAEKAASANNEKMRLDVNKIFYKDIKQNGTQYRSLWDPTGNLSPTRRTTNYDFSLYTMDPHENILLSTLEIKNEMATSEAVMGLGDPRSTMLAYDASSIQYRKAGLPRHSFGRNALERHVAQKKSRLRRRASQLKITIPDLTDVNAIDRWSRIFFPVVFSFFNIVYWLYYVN
Chain of Gamma-aminobutyric acid receptor subunit alpha-1/alpha-2/beta-2/gamma-2 (P18507 whole entry): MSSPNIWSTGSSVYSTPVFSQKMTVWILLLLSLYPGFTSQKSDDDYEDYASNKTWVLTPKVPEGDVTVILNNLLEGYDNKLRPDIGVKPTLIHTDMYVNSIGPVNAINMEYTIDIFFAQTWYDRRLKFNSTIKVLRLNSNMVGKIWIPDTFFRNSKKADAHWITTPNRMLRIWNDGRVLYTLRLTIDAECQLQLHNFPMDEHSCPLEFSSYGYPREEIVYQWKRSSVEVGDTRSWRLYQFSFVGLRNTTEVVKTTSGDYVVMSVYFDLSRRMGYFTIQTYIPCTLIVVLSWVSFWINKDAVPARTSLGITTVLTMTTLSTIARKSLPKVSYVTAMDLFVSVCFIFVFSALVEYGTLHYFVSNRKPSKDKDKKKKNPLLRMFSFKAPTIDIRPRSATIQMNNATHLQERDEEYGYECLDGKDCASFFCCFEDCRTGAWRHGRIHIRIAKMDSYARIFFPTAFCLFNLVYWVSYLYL
Chain of Gamma-aminobutyric acid receptor subunit alpha-1/alpha-2/beta-2/gamma-2 (P47869 whole entry): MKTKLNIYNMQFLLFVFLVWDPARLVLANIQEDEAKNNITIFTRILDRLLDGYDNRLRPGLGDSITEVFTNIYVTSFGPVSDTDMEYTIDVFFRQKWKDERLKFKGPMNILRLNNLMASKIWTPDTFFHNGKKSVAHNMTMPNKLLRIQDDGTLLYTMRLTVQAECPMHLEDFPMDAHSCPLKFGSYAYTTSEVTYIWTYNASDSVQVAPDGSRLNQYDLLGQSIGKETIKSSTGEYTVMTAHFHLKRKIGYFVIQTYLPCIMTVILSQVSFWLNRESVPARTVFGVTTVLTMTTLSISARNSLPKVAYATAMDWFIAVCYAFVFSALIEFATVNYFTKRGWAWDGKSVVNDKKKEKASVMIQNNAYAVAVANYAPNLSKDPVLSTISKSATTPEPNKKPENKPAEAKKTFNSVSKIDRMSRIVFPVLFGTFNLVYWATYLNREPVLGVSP
Chain of Neuronal acetylcholine receptor subunit alpha-4 (P43681 whole entry): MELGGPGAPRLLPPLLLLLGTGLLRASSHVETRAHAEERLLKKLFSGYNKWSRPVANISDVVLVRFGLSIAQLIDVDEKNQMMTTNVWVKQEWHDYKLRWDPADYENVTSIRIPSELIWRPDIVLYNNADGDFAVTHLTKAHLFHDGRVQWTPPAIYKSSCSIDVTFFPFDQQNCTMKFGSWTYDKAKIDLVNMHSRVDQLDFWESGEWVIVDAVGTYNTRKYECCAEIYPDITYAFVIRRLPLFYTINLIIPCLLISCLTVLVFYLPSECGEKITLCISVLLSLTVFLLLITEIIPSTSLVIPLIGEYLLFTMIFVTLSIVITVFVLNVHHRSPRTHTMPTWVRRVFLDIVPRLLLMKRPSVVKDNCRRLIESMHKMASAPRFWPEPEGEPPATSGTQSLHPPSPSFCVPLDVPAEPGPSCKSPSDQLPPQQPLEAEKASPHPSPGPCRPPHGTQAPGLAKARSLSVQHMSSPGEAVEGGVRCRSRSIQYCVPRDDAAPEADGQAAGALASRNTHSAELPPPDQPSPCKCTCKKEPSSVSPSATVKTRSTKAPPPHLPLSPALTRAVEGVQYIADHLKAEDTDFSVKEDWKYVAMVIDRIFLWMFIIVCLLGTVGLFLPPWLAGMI

As to `OC(c1ccccc1)(c1ccccc1)C12CC[N+](CCOCc3ccccc3)(CC1)CC2`, the concentration at half-maximal activity (AC50) in assay [1] was over 30 µM; on Androgen receptor, over 30 µM; in assay [2] it was 0.0053 µM; in assay [3] it was over 30 µM; at Thromboxane A2 receptor, over 30 µM; at Estrogen receptor, over 30 µM.

For `CC[C@@H](C(N)=O)N1CCCC1=O`, the AC50 (in assay [1]; in assay [2]; in assay [4]; on Thromboxane A2 receptor; in assay [5]; at Estrogen receptor) was over 30 µM each time.

For `N=C1CCCN1Cc1[nH]c(=O)[nH]c(=O)c1Cl`, the AC50 (in assay [1]; at Androgen receptor; in assay [2]; in assay [3]; on Thromboxane A2 receptor; at Estrogen receptor) was over 30 µM throughout.

Turning to `Nc1ccncc1N` [AMIFAMPRIDINE], the concentration at half-maximal activity (AC50) (in assay [1]; in assay [2]; in assay [4]; in assay [3]; at Thromboxane A2 receptor) was over 30 µM throughout.

In the case of `CC1=C(/C=C/C(C)=C/C=C/C(C)=C/C=C/C=C(C)/C=C/C=C(C)/C=C/C2=C(C)CCCC2(C)C)C(C)(C)CCC1` [BETA CAROTENE], the half-maximal activity concentration (AC50) (in assay [1]; at Androgen receptor; in assay [2]; in assay [3]; on Thromboxane A2 receptor; at Estrogen receptor) was over 30 µM each time.

Regarding `C=CCN1C[C@H](C(=O)N(CCCN(C)C)C(=O)NCC)C[C@@H]2c3cccc4[nH]cc(c34)C[C@H]21` [CABERGOLINE], the AC50 in assay [1] was 0.0083 µM; in assay [2] it was over 30 µM; in assay [4] it was over 30 µM; at Thromboxane A2 receptor it was over 30 µM; in assay [5], over 10 µM; on Estrogen receptor it was over 30 µM.

As for `CC(=O)OCC1=C(C(=O)O)N2C(=O)[C@@H](NC(=O)[C@H](N)c3ccccc3)[C@H]2SC1` [CEPHALOGLYCIN], the AC50 (in assay [1]; at Androgen receptor; in assay [2]; in assay [3]; at Thromboxane A2 receptor; at Estrogen receptor) was over 30 µM each time.

`CC(C)(C)CC(C)(C)c1ccc(O)c(Cc2ccc(Cl)cc2Cl)c1` [CLOFOCTOL]: the concentration at half-maximal activity (AC50) is over 30 µM in assay [1]; 14.9 µM on Androgen receptor; over 10 µM in assay [2]; over 30 µM in assay [3]; over 30 µM at Thromboxane A2 receptor; 8.45 µM at Estrogen receptor.

On to `CN1CCN(C2=Nc3ccccc3Sc3ccc(Cl)cc32)CC1` [CLOTHIAPINE], for which the AC50 is 12.1 µM in assay [1]; over 30 µM at Androgen receptor; 0.42 µM in assay [2]; over 30 µM in assay [3]; over 10 µM at Thromboxane A2 receptor.

`CC(=O)OCC(=O)[C@@]1(O)CC[C@H]2[C@@H]3CCC4=CC(=O)C=C[C@]4(C)[C@@]3(Cl)[C@@H](Cl)C[C@@]21C` [DICHLORISONE ACETATE]: the AC50 was over 30 µM in assay [1]; 0.128 µM on Androgen receptor; over 30 µM in assay [2]; over 30 µM in assay [3]; over 30 µM at Thromboxane A2 receptor; over 30 µM on Estrogen receptor.

Turning to `CC[C@H]1CN2CC[C@H]1C[C@H]2[C@H](O)c1ccnc2ccc(OC)cc12` [HYDROQUININE], the AC50 (in assay [1]; on Androgen receptor; in assay [2]; in assay [3]; on Thromboxane A2 receptor; on Estrogen receptor) was over 30 µM each time.

For the compound `COc1ccc2c(c1)N(C[C@H](C)CN(C)C)c1ccccc1S2` [LEVOMEPROMAZINE], the AC50 was 2.84 µM in assay [1]; 0.331 µM in assay [2]; over 30 µM in assay [4]; 26 µM at Thromboxane A2 receptor; over 30 µM on Estrogen receptor.

As for `O=C(O)c1ccccc1C(=O)Nc1ccc(S(=O)(=O)Nc2nccs2)cc1` [PHTHALYLSULFATHIAZOLE], the AC50 in assay [1] was over 10 µM; at Androgen receptor, over 30 µM; in assay [2] it was over 30 µM; in assay [3] it was over 30 µM; on Thromboxane A2 receptor, over 30 µM.

As for `O=[N+]([O-])c1cn2c(n1)OC[C@@H](OCc1ccc(OC(F)(F)F)cc1)C2` [PRETOMANID], the concentration at half-maximal activity (AC50) in assay [1] was over 30 µM; at Androgen receptor it was over 30 µM; in assay [2], 10.6 µM; in assay [3] it was over 30 µM; on Thromboxane A2 receptor, over 30 µM; at Estrogen receptor, over 30 µM.

`OC(CCN1CCCCC1)(c1ccccc1)c1ccccc1` [PRIDINOL]: the concentration at half-maximal activity (AC50) is 29.8 µM in assay [1]; over 30 µM on Androgen receptor; 0.0824 µM in assay [2]; over 30 µM in assay [3]; over 30 µM at Thromboxane A2 receptor; over 30 µM on Estrogen receptor.

Consider `Nc1nc2nc[nH]c2c(=S)[nH]1` [THIOGUANINE], for which the half-maximal activity concentration (AC50) (in assay [1]; on Androgen receptor; in assay [3]; at Thromboxane A2 receptor; on Estrogen receptor) was over 30 µM throughout.

With `CC[C@]1(O)C[C@H]2CN(CCc3c([nH]c4ccccc34)[C@@](C(=O)OC)(c3cc4c(cc3OC)N(C=O)[C@H]3[C@@](O)(C(=O)OC)[C@H](OC(C)=O)[C@]5(CC)C=CCN6CC[C@]43[C@@H]65)C2)C1` [VINCRISTINE], the AC50 (in assay [1]; on Androgen receptor; in assay [3]; at Thromboxane A2 receptor; on Estrogen receptor) was over 30 µM each time.

Broadly, the AC50 is the midpoint of the concentration-response curve, whichever way the signal moves.
